# Results reported in DBAASP.
# “And” between values parts separate entries of the source, which are not always exact repeats. Equal values may be shown once.
# What was measured:
# Assay in all cases: ≥ marks a high value that may be exact or a test limit, other limits are often not marked, values filed in µg/mL are converted to µM
# [1] = tested on: Escherichia coli ATCC 25922
# [2] = tested on: Enterobacter cloacae ATCC 49141
# [3] = tested on: Pseudomonas aeruginosa ATCC 27853
# Escherichia coli D21 = tested on: Escherichia coli D21
# [4] = tested on: Acinetobacter baumannii ATCC 19606
# [5] = tested on: Enterococcus faecalis ATCC 19433
# [6] = tested on: Staphylococcus aureus FDA 209P
# [7] = tested on: Escherichia coli IFO 3972
# [8] = tested on: Enterococcus faecalis ATCC 29212
# [9] = tested on: Staphylococcus aureus ATCC 29213
# [10] = tested on: Staphylococcus epidermidis PIA 8400
# [11] = tested on: Candida albicans ATCC 37092
# [12] = tested on: Bacillus anthracis Sterne 34F2
# Escherichia coli K91BK = tested on: Escherichia coli K91BK
# [13] = tested on: Bacillus subtilis var. niger ATCC 9372
# [14] = tested on: Burkholderia thailandensis
# [15] = tested on: Staphylococcus aureus PTCC 1431
# [16] = tested on: Escherichia coli HP101BA 7601c
# [17] = tested on: Bacillus cereus PTCC 1247
# [18] = tested on: Klebsiella pneumoniae PTCC 1388
# [19] = tested on: Neisseria gonorrhoeae F62
# [20] = tested on: Neisseria gonorrhoeae FA19
# [21] = tested on: Staphylococcus aureus 90857
# [22] = tested on: Clavibacter michiganensis subsp. michiganensis DSM 46294
# [23] = tested on: Xanthomonas vesicatoria DSM 50861
# [24] = tested on: Pseudomonas syringae pv. tomato DC3000
# [25] = tested on: Pseudomonas syringae pv. syringae DSM 10604
# [26] = tested on: Pectobacterium carotovorum subsp. carotovorum DSM 30168
# [27] = tested on: Pseudomonas corrugata DSM 7228
# [28] = tested on: Staphylococcus aureus ATCC 25923
# [29] = tested on: Escherichia coli NCTC 10418
# [30] = tested on: Staphylococcus aureus NCTC 12981
compound,measurement,setting,value
CC(C)C[C@H](NC(=O)[C@H](CCCCN)NC(=O)[C@H](CCCCN)NC(=O)[C@H](CC(C)C)NC(=O)[C@H](CC(C)C)NC(=O)[C@H](CCCCN)NC(=O)[C@H](CCCCN)NC(=O)[C@H](CC(C)C)NC(=O)[C@H](CC(C)C)NC(=O)[C@H](CCCCN)NC(=O)[C@H](CCCCN)NC(=O)[C@H](CC(C)C)NC(=O)[C@H](C)NC(=O)[C@H](CC(=O)O)NC(=O)[C@@H](N)CC(=O)O)C(=O)O [DDALKKLLKKLLKKL],MIC,[1],50 µM and 75 µM
same,MIC,[2],6.2 µM
same,MIC,[3],12.5 µM and 25 µM
same,MIC,Escherichia coli D21,25 µM
same,MIC,[4],25 µM
same,MIC,[5],≥ 50 µM
CC(C)[C@H](NC(=O)[C@H](CCCCN)NC(=O)[C@H](CCCN=C(N)N)NC(=O)[C@H](CCCCN)NC(=O)[C@H](CCCCN)NC(=O)[C@H](CCCCN)NC(=O)[C@@H]1CCCN1)C(=O)O [PKKKRKV],MIC,[6],≥ 500 µM
same,MIC,[7],≥ 500 µM
CC[C@H](C)[C@H](NC(=O)[C@H](Cc1c[nH]c2ccccc12)NC(=O)[C@@H](NC(=O)[C@@H](NC(=O)[C@H](Cc1c[nH]c2ccccc12)NC(=O)[C@H](CCCCN)NC(=O)[C@H](CCCCN)NC(=O)[C@@H](NC(=O)[C@@H](N)CCCN=C(N)N)[C@@H](C)O)[C@@H](C)CC)C(C)C)C(N)=O [RTKKWIVWI],MIC,[1],13.8 µM
same,MIC,[8],55.3 µM and 110 µM
same,MIC,[9],27.7 µM
same,MIC,[10],13.8 µM
CC[C@H](C)[C@H](NC(=O)[C@H](CCCN=C(N)N)NC(=O)[C@@H](N)CCCN=C(N)N)C(=O)N[C@@H](CCCN=C(N)N)C(=O)N1CCC[C@H]1C(=O)N[C@@H](CCCN=C(N)N)C(=O)N1CCC[C@H]1C(=O)N1CCC[C@H]1C(=O)N[C@@H](CCCN=C(N)N)C(=O)N[C@@H](CC(C)C)C(=O)N1CCC[C@H]1C(=O)N[C@@H](CCCN=C(N)N)C(=O)N1CCC[C@H]1C(=O)N[C@@H](CCCN=C(N)N)C(=O)N1CCC[C@H]1C(=O)N[C@@H](CCCN=C(N)N)C(=O)N1CCC[C@H]1C(=O)N[C@@H](CC(C)C)C(=O)N1CCC[C@H]1C(=O)N[C@@H](Cc1ccccc1)C(=O)N1CCC[C@H]1C(=O)N[C@@H](CCCN=C(N)N)C(=O)N1CCC[C@H]1C(=O)NCC(=O)O [RRIRPRPPRLPRPRPRPLPFPRPG],MIC,[11],1.12 µM
same,MIC,[1],0.45 µM
same,MIC,[9],2.6 µM
CC[C@H](C)[C@H](NC(=O)[C@H](CCCN=C(N)N)NC(=O)[C@@H](NC(=O)[C@@H](NC(=O)[C@H](CCCN=C(N)N)NC(=O)[C@H](CC(C)C)NC(=O)[C@@H](NC(=O)[C@@H](NC(=O)[C@@H]1CCCN1C(=O)CNC(=O)[C@H](Cc1ccc(O)cc1)NC(=O)[C@H](CCCCN)NC(=O)[C@H](CCCCN)NC(=O)[C@@H](NC(=O)[C@H](C)NC(=O)[C@H](Cc1cnc[nH]1)NC(=O)[C@@H](NC(=O)[C@@H](NC(=O)[C@H](CCCCN)NC(=O)[C@H](CCCN=C(N)N)NC(=O)CNC(=O)[C@H](CC(C)C)NC(=O)[C@H](CCCN=C(N)N)NC(=O)[C@H](CCCN=C(N)N)NC(=O)[C@H](CC(C)C)NC(=O)[C@H](C)NC(=O)CNC(C)=O)[C@@H](C)CC)[C@@H](C)O)C(C)C)[C@@H](C)O)C(C)C)[C@@H](C)CC)[C@@H](C)CC)C(=O)N[C@@H](C)C(=O)NCC(N)=O [GALRRLGRKITHAVKKYGPTVLRIIRIAG],MIC,[12],1.19 µM
same,MIC,Escherichia coli K91BK,28.7 µM
same,MIC,[13],1.31 µM
same,MIC,[14],≥ 84.1 µM
CC[C@H](C)[C@H](NC(=O)[C@H](Cc1cnc[nH]1)NC(=O)[C@H](CCC(N)=O)NC(=O)[C@H](CCSC)NC(=O)[C@H](CCSC)NC(=O)[C@H](CCC(=O)O)NC(=O)[C@H](C)NC(=O)[C@H](C)NC(=O)[C@@H](NC(=O)[C@H](CO)NC(=O)[C@H](C)NC(=O)[C@@H](NC(=O)[C@H](Cc1ccccc1)NC(=O)[C@@H]1CCCN1C(=O)[C@@H](NC(=O)[C@@H](N)C(C)C)[C@@H](C)CC)C(C)C)C(C)C)C(=O)N[C@@H](Cc1ccccc1)C(=O)N[C@H]1CSSC[C@@H](C(=O)O)NC(=O)[C@H](CCCCN)NC(=O)[C@H](CCCN=C(N)N)NC(=O)[C@H](CO)NC(=O)[C@H](C)NC(=O)[C@H](C)NC1=O [VIPFVASVAAEMMQHIFCAASRKC],MIC,[15],6.51 µM
same,MIC,[16],3.06 µM
same,MIC,[17],4.6 µM
same,MIC,[18],5.36 µM
CC(C)C[C@H](NC(=O)[C@H](CCCNC(=N)N)NC(=O)CNC(=O)CNC(=O)[C@@H](N)CCCNC(=N)N)C(=O)N[C@H]1CSSC[C@@H](C(N)=O)NC(=O)[C@H](C(C)C)NC(=O)[C@@H]2CSSC[C@H](NC(=O)[C@H](Cc3ccc(O)cc3)NC1=O)C(=O)N[C@@H](CCCNC(=N)N)C(=O)N[C@@H](CCCNC(=N)N)C(=O)N[C@@H](CCCNC(=N)N)C(=O)N[C@@H](Cc1ccccc1)C(=O)N2 [RGGRLCYCRRRFCVC],MIC,[19],0.58 µM
same,MIC,[20],4.11 µM
CC[C@H](C)[C@H](NC(=O)[C@H](CC(C)C)NC(=O)[C@H](CCCCN)NC(=O)[C@H](CCCCN)NC(=O)[C@H](CC(C)C)NC(=O)[C@@H](NC(=O)[C@H](CCCCN)NC(=O)[C@H](CCCCN)NC(=O)[C@@H](NC(=O)[C@@H](NC(=O)[C@H](CCCN=C(N)N)NC(=O)[C@@H](N)CC(C)C)[C@@H](C)CC)[C@@H](C)CC)[C@@H](C)CC)C(N)=O [LRIIKKILKKLI],MIC,[21],3 µM
same,MIC,[22],0.338 µM
same,MIC,[23],0.169 µM
same,MIC,[24],0.169 µM
same,MIC,[25],0.338 µM
same,MIC,[26],1.69 µM
same,MIC,[27],0.338 µM
NC(=O)[C@H](Cc1c[nH]c2ccccc12)NC(=O)[C@H](CCCN=C(N)N)NC(=O)[C@H](Cc1c[nH]c2ccccc12)NC(=O)[C@H](CCCN=C(N)N)NC(=O)[C@@H](N)Cc1c[nH]c2ccccc12 [WRWRW],MIC,[1],16.9 µM
same,MIC,[3],56.2 µM
same,MIC,[28],11.2 µM
same,MIC,[29],≥ 72 µM
same,MIC,[30],≥ 72 µM
